From US10660900B2 (priority 2014, dated 2020)
Where “and” joins values, the source holds several entries; their conditions need not be identical. Identical values can stand only once. Entries after “also recorded” stand apart in the source; their conditions may differ.

What was measured:
[1] = Safety and tolerability in healthy volunteers (adverse events, ECG, vital signs, oximetry); assay type: in vivo, human
Procedure: Pulse oximetry and capnography data were collected continuously using a GE Carescape B650 monitoring system from 2 hours prior to dosing and until six hours after dosing, and thereafter at 12, 24, 48 and 72 hours post-dosing. Additional oximetry data were collected at 120, 168 and 216 hours. Pupillary miosis was assessed by pupillometry. Dark-adapted pupil diameter was measured in triplicate using a Neuroptics PLR-200 pupillometer under standardized light intensity (<5 lux) pre-dose, and at 2, 4, 6, 12, 24, 48, 72, 96, 120, 168 and 216 hours post-dosing.
Safety and tolerability of noribogaine were tested in the group of volunteers from Example 1. Cold pressor testing was conducted in 1° C. water according to the method of Mitchell et al. (J Pain 5:233-237, 2004) pre-dose, 6, 24, 48, 72 and 216 hours post-dosing. Safety evaluations included clinical monitoring, recording of adverse events (AEs), safety laboratory tests, vital signs, ECG telemetry from −2 h to 6 h after dosing, and 12-lead electrocardiograms (ECGs) up to 216 hours post-dosing.

[2] = QT interval in opioid-dependent patients; assay type: in vivo, human; conditions: 60, 120, 180 mg; first 24 hours; correlated with serum concentration
Procedure: Patients' QT intervals were evaluated at regular time points throughout the study. […] A goodness-of-fit plot for the observed and predicted relation between noribogaine plasma levels and ΔΔQTc1 is provided in FIG. 9C.

human OPRK = test: biochemical; assay type: binding
calf OPRK = calf OPRK (Bos taurus, UniProt Q2KIP6); conditions: cited from earlier work
[3] = test system: human opioid receptor delta (OPRD); conditions: Pearl, Herrick-Davis et al. 1995; cited from earlier work
[4] = biological target: opioid receptor delta (OPRD) (Bos taurus, UniProt F1N083); conditions: printed in the SEM column; literature; cited from earlier work
OPRK [5] = biological target: T1, OPRK (Homo sapiens, UniProt P41145); test: cell-based; parameters: host or cells: CHO-K1
OPRK [6] = biological target: T1, OPRK; test: biochemical; parameters: expressed in transfected cells; host or cells: CHO-K1
[7] = Treatment emergent adverse events in opioid-dependent patients, single dose
[8] = Single ascending oral dose pharmacokinetics of noribogaine in healthy volunteers (plasma and urine, LCMSMS); conditions: for CL/F: mean (SD), n = 6

T1 sequence (P41145 whole entry): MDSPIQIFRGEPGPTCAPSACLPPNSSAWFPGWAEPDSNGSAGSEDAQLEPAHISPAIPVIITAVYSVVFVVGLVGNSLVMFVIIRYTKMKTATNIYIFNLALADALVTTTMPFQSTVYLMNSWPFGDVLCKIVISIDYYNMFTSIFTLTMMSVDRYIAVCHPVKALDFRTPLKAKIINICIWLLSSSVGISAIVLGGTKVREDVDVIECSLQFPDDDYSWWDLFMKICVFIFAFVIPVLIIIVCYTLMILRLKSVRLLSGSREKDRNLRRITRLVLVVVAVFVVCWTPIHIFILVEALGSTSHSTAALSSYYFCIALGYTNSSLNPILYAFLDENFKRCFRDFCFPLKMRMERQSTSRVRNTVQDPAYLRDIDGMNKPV
calf OPRK, sequence (Q2KIP6 whole entry): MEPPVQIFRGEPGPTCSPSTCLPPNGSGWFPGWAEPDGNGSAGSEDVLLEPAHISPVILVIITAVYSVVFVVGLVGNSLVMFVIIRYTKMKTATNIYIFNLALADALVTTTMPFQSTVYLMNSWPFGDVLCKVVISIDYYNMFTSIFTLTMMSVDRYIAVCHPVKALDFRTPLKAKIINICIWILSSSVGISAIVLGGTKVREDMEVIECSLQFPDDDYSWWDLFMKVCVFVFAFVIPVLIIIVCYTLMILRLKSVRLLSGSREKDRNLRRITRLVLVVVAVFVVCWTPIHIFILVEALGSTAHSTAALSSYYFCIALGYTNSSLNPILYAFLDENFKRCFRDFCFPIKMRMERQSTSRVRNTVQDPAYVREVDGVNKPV
opioid receptor delta (OPRD), sequence (F1N083 1-372): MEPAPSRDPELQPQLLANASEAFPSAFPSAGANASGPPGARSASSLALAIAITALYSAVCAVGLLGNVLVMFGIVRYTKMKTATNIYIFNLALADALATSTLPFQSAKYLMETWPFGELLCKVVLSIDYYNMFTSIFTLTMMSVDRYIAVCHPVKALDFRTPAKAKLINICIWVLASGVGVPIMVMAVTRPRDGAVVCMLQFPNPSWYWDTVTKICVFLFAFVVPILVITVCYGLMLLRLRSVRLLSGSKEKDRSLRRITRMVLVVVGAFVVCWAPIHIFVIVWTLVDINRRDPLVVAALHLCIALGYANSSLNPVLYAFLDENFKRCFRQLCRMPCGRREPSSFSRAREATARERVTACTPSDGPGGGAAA

CC[C@H]1CC2C[C@H]3c4[nH]c5ccc(O)cc5c4CCN(C2)C13 [Noribogaine, noribogaine]
number of adverse events reported ([1]; 3 mg dose group, two subjects): five | adverse events, Mild ([1]; 3 mg noribogaine): Back pain; also recorded: Dizziness; also recorded: Epistaxis; also recorded: Headache | adverse events, Moderate ([1]; 3 mg noribogaine): Headache | number of adverse events reported ([1]; 10 mg dose group, single subject): one | adverse events, Mild ([1]; 10 mg noribogaine): Headache | number of adverse events reported ([1]; 30 mg dose group, single subject): one | adverse events, Mild ([1]; 30 mg noribogaine): Headache | oximetry, capnography, respiratory rate ([1]; 3-60 mg single oral doses): no changes in oximetry or capnography, or changes in respiratory rate | vital signs and safety laboratory tests ([1]; 3-60 mg single oral doses): no changes in vital signs or safety laboratory tests of note | QTcF values above 500 msec ([1]; all dose groups, any time): no QTcF values >500 msec | single increase in QTcF ([1]; one subject, 10 mg noribogaine, 24 hours post-dosing): > 60 ms | QT interval prolongation (ΔQTcI) [2]: dose-dependent increase in QT interval prolongation | ΔpKi = pKi(OPRK) − pKi(OPRM), OPRK Specificity (human OPRK; from literature (or literature/this work) values): 0.4 | ΔpKi = pKi(OPRK) − pKi(OPRM), OPRK Specificity (human OPRK; from values of this work): 0.3 | Ki (calf OPRK; calf OPRK): 0.96 µM | pKi (calf OPRK; calf receptor, literature): 6.0 | less affine at OPRD than at OPRK [3]: ~30 × | Ki [4]: 24.7 µM | EC50 (OPRK [5]): 0.265 µM | e-coupling (pKi-pEC50) (OPRK [5]; Activation): −0.43 | e-coupling, Beta-Arrestin2 Pathway (OPRK [5]; Activation): −0.43 | e-signal, Beta-Arrestin2 Pathway (OPRK [5]; Activation): 0.13 | pEC50 (OPRK [5]; Activation): 6.6 | Emax (OPRK [5]; CHO-K1, read-out: Efficacy (Emax)): 12.6 ± 3% | inhibition of agonist response (OPRK [5]; Dynorphin A at EC80): ~60% | e-coupling, Beta-Arrestin2 Pathway (OPRK [5]; Inhibition): −0.44 | e-signal, Beta-Arrestin2 Pathway (OPRK [5]; Inhibition): 0.60 | e-coupling (pKi-pKe) (OPRK [5]; inhibitory component): −0.44 | Efficacy (inhibition) (OPRK [5]; inhibitory component against Dynorphin A): −60~ % | Efficacy (Emax) (OPRK [6]): 70% | Efficacy (inhibition) (OPRK [6]): −30% and −25% | e-coupling (pKi-pEC50) (OPRK [6]): 1.08 | e-coupling, G-protein Pathway (OPRK [6]): 1.72 and 1.08 | own reduced signal level to which rival agonist signal is leveled down (OPRK [6]): 70% | pEC50 (OPRK [6]): 5.1 | Ki (OPRK [6]; Ke): 12 µM and 24 µM | EC50 (OPRK [6]; read-out: EC50): 8.75 µM and 8.7 µM | Emax (OPRK [6]; read-out: Efficacy (Emax)): 72 ± 3.8% | Catheter Site Infection ([7]; 60 mg noribogaine (N = 6)): 0 | Catheter Site Pain ([7]; 60 mg noribogaine (N = 6)): 0 | Catheter Site Related Reaction ([7]; 60 mg noribogaine (N = 6)): 0 | Cellulitis ([7]; 60 mg noribogaine (N = 6)): 0 | Diarrhoea ([7]; 60 mg noribogaine (N = 6)): 0 | Diy Mouth ([7]; 60 mg noribogaine (N = 6)): 0 | Ear and Labyrinth Disorders ([7]; 60 mg noribogaine (N = 6)): 0 | Epistaxis ([7]; 60 mg noribogaine (N = 6)): 0 | Euphoric Mood ([7]; 60 mg noribogaine (N = 6)): 0 | General Disorders and Administration Site Conditions ([7]; 60 mg noribogaine (N = 6)): 0 | Hyperaesthesia ([7]; 60 mg noribogaine (N = 6)): 0 | Infections and Infestations ([7]; 60 mg noribogaine (N = 6)): 0 | Limb Discomfort ([7]; 60 mg noribogaine (N = 6)): 0 | Malaise ([7]; 60 mg noribogaine (N = 6)): 0 | Nausea ([7]; 60 mg noribogaine (N = 6)): 0 | Oropharyngeal Pain ([7]; 60 mg noribogaine (N = 6)): 0 | Pseudoparalysis ([7]; 60 mg noribogaine (N = 6)): 0 | Respiratory, Thoracic and Mediastinal Disorders ([7]; 60 mg noribogaine (N = 6)): 0 | Rhinorrhoea ([7]; 60 mg noribogaine (N = 6)): 0 | Skin Discomfort ([7]; 60 mg noribogaine (N = 6)): 0 | Skin Irritation ([7]; 60 mg noribogaine (N = 6)): 0 | Skin and Subcutaneous Tissue Disorders ([7]; 60 mg noribogaine (N = 6)): 0 | Somnoience ([7]; 60 mg noribogaine (N = 6)): 0 | Tinnitus ([7]; 60 mg noribogaine (N = 6)): 0 | Tremor ([7]; 60 mg noribogaine (N = 6)): 0 | Urinary Tract Infection ([7]; 60 mg noribogaine (N = 6)): 0 | Vomiting ([7]; 60 mg noribogaine (N = 6)): 0 | Back Pain ([7]; 120 mg noribogaine (N = 6)): 0 | Catheter Site Infection ([7]; 120 mg noribogaine (N = 6)): 0 | Catheter Site Related Reaction ([7]; 120 mg noribogaine (N = 6)): 0 | Depressed Mood ([7]; 120 mg noribogaine (N = 6)): 0 | Dry Eye ([7]; 120 mg noribogaine (N = 6)): 0 | Dyspepsia ([7]; 120 mg noribogaine (N = 6)): 0 | Euphoric Mood ([7]; 120 mg noribogaine (N = 6)): 0 | Limb Discomfort ([7]; 120 mg noribogaine (N = 6)): 0 | Malaise ([7]; 120 mg noribogaine (N = 6)): 0 | Musculoskeletal and Connective Tissue Disorders ([7]; 120 mg noribogaine (N = 6)): 0 | Psychiatric Disorders ([7]; 120 mg noribogaine (N = 6)): 0 | Somnoience ([7]; 120 mg noribogaine (N = 6)): 0 | Urinary Tract Infection ([7]; 120 mg noribogaine (N = 6)): 0 | Catheter Site Infection ([7]; 180 mg noribogaine (N = 6)): 0 | Catheter Site Pain ([7]; 180 mg noribogaine (N = 6)): 0 | Depressed Mood ([7]; 180 mg noribogaine (N = 6)): 0 | Diarrhoea ([7]; 180 mg noribogaine (N = 6)): 0 | Dry Eye ([7]; 180 mg noribogaine (N = 6)): 0 | Dyspepsia ([7]; 180 mg noribogaine (N = 6)): 0 | Ear and Labyrinth Disorders ([7]; 180 mg noribogaine (N = 6)): 0 | Epistaxis ([7]; 180 mg noribogaine (N = 6)): 0 | Euphoric Mood ([7]; 180 mg noribogaine (N = 6)): 0 | Hyperaesthesia ([7]; 180 mg noribogaine (N = 6)): 0 | Malaise ([7]; 180 mg noribogaine (N = 6)): 0 | Oropharyngeal Pain ([7]; 180 mg noribogaine (N = 6)): 0 | Pseudoparalysis ([7]; 180 mg noribogaine (N = 6)): 0 | Psychiatric Disorders ([7]; 180 mg noribogaine (N = 6)): 0 | Respiratory, Thoracic and Mediastinal Disorders ([7]; 180 mg noribogaine (N = 6)): 0 | Rhinorrhoea ([7]; 180 mg noribogaine (N = 6)): 0 | Skin Discomfort ([7]; 180 mg noribogaine (N = 6)): 0 | Skin Irritation ([7]; 180 mg noribogaine (N = 6)): 0 | Skin and Subcutaneous Tissue Disorders ([7]; 180 mg noribogaine (N = 6)): 0 | Somnoience ([7]; 180 mg noribogaine (N = 6)): 0 | Tinnitus ([7]; 180 mg noribogaine (N = 6)): 0 | Tremor ([7]; 180 mg noribogaine (N = 6)): 0 | hallucinatory effects ([7]; 60, 120 or 180 mg single dose): no hallucinatory effects | CL/F ([8]; 3 mg single oral noribogaine): 41.4 (7.0) L/h | CL/F ([8]; 10 mg single oral noribogaine): 42.3 (12.0) L/h | CL/F ([8]; 30 mg single oral noribogaine): 46.9 (16.4) L/h | CL/F ([8]; 60 mg single oral noribogaine): 34.0 (11.4) L/h | dose relation of Cmax and AUC ([8]; 3-60 mg single oral doses): increased linearly with dose | Volume of distribution ([8]; across dose groups): 1417 to 3086 L | time of peak concentrations after oral noribogaine dosing ([8]; plasma, across dose groups): 2 to 3 h
